Assay results from patent publication US6585964B1, “Method for preventing or minimizing biodegradation of a substance” (Biospherics Incorporated, priority 1999, dated 2003).
Square brackets hold non-standard residues; d marks the D form. Peptide text beside a SMILES is read from it. * marks the point of attachment. Cbz = O=C(OCc1ccccc1)*

What was measured:
sense of smell = assay: Human smell test of menthol enantiomers evaporated from acetone solution in Petri dishes; assay type: in vivo; conditions: 0.001M solution in acetone, twenty drops, acetone evaporated at room temperature; six human subjects, test performed twice each
Description: The naturally-occurring optical isomer of menthol (1R,2S,5R)−(−) is used as a fragrance in a variety of products, such as perfumes, gums, and cigarettes. Both the natural and the unnatural (1S,2R,5S)−(+) optical isomer of menthol were obtained in 99% purity. A 0.001M solution of each enantiomer was prepared in reagent grade acetone. The solutions were allowed to equilibrate at room temperature for approximately one hour. Twenty drops of each solution were pipetted into separate glass Petri dishes. All glassware was clean. The acetone was then allowed to evaporate at room temperature. A human subject then smelled the two Petri dishes separately and recorded any sensations. The subject had been instructed to determine the presence of odor in the Petri dishes, and, if odor emanated from each, to determine whether the odors were the same or different. The test was performed twice on each of six human subjects, three female and three male. Each subject was given freshly prepared Petri dish servings to smell, and each immediately recorded his or hers impressions without communicating with the other subjects.

carboxypeptidase = conditions: compared with the L-enantiomorph, which is hydrolysed; cited from earlier work

Compound | odor the same as or different from the natural form (sense of smell) | presence of odor (sense of smell) | action of carboxypeptidase (hydrolysis) on the compound (carboxypeptidase)
CC1CC[C@H](C(C)C)[C@@H](O)C1 (stereo partly drawn) [unnatural form of menthol, (1S,2R,5S)-(+)-Menthol] | the same as that of the natural form | had odor | –
O=C(CNC(=O)OCc1ccccc1)N[C@H](Cc1ccccc1)C(=O)O [carbobenzoxyglycyl-D-phenalalanine] (Cbz-Gly-[dF]-OH) | – | – | no measurable action
